Measurements published in paper PMC13304593 (Pharmaceuticals, 2026).

Test: Pharmacokinetics of DTX in mice after oral administration
Assay type: in vivo, Kunming mice
Details: lung, oral 20 mg/kg DTX or equivalent
Protocol: Briefly, the samples were precipitated with three volumes of acetonitrile and analyzed using an LC-MS/MS system comprising a Waters ACQUITY ultra-high-performance liquid chromatography (UPLC) system (Waters Corporation, Milford, MA, USA) and an API 5500 mass spectrometer (AB Sciex LLC, Framingham, MA, USA) equipped with an electrospray ionization source. Separation was performed on an ACQUITY BEH C18 column (2.1 × 100 mm, 1.7 μm; Waters) using a gradient elution.
One hundred specific-pathogen-free (SPF) male Kunming mice (body weight: 22–24 g) were purchased from the Beijing Vital River Laboratory Animal Technology Co., Ltd. (Beijing, China). Mice were housed in an air-conditioned room maintained at 22–24 °C with a 12 h light/12 h dark cycle. Prior to the experiment, mice were fasted for 12 h with free access to water.
Mice were randomly divided by body weight into two main groups, each subdivided into 10 subgroups. […] At each time point post-administration (0.083, 0.25, 0.5, 1, 2, 3, 4, 6, 8, and 12 h), one subgroup of mice from each main group was anesthetized with Zoletil® 50. Systemic blood was collected and heparinized to prepare the plasma. Next, the animals were immediately euthanized by cervical dislocation under deep anesthesia prior to liver and lung excision. […]
Quantitative data are expressed as the mean ± SD.

Question: Which t1/2 does the source give for `CC(=O)O[C@@]12CO[C@@H]1C[C@H](O)[C@@]1(C)C(=O)[C@H](O)C3=C(C)[C@@H](OC(=O)[C@H](O)[C@@H](NC(=O)OC(C)(C)C)c4ccccc4)C[C@@](O)([C@@H](OC(=O)c4ccccc4)[C@H]21)C3(C)C` [DTX, docetaxel] here?
Answer: The t1/2 was 2.6 h.
